Tested on: E-Box DNA
Format: binding
Conditions: pH 8

(AcATEENVKRRTHNVLERQRRNELKRSFFG)2K (sidechain bridge or staple) [MiniMYC 1]
Binding to E-Box DNA in EMSA (in words): no binding

(AcATEENVKRRTHNVLERQRRNELKRSSCFA)2-Linker (sidechain bridge or staple) [MiniMYC 3]
Binding to E-Box DNA in EMSA (in words): did not show any specific association

(AcVKRRTHNVLERQRRNELKRSFFALRDQIPELENNEKAPKVVILKKATAYILSAβC)2-linker (sidechain bridge or staple) [DuoMYC 7]
Kd (read-out: KD for E-Box DNA measured by EMSA): ~174 nM

Reference: PMC11753601 (Angewandte Chemie (International Ed. in English), 2024)
